Assay results published in US11858972B2, “Micropeptides and uses thereof” (FUNDACIÓ PRIVADA INSTITUT D'INVESTIGACIÓ ONCOLÒGICA DE VALL …, priority 2018, dated 2024).
*1 amine or outer side, *2 acyl side, *3 side chain or, on linkers, in order; H or OH if unused. Where a SMILES comes first, the peptide text is derived from it. Bridges are numbered along the chain shown (N, C = ends). Roman numbers before positions name the chains, in order. [ ]: non-standard residue; d: D form. Actinocin(9to1) = Cc1c2oc3c(C)ccc(C(=O)[*:1])c3nc-2c(C(=O)[*:2])c(N)c1=O; NMeV = CN[C@H](C(=O)O)C(C)C; Sar = CNCC(=O)O

What was measured:
Type in all cases: cell-based, human
[1] = system: SEQ ID NO:1 in HCT116 p53KO and BxPC-3 cells; assay: SEQ ID NO:1 expression (qPCR, Western Blot) after drug treatment, p53 altered cells; settings: p53 status altered: HCT116 p53KO, BxPC-3 (mutant p53); Doxorubicin 1 μM, Actinomycin D 1 nM, Nutlin-3a 10 μM
Method: (§1) FIG. 10. SEQ ID NO: 1 is induced by genotoxic stress in a p53-dependent manner. HCT116, HCT116 p53KO, A549 and BxPC3 were treated with Doxorubicin (1 μM) or Actinomycin D (1 nM) and Nutlin-3a (10 μM). SEQ ID NO: 1 transcriptional levels were measured by qPCR in A549 and HCT116 (A) and in HCT116 p53KO and BxPC-3 (B). mRNA expression is shown relative to the not treated control. SEQ ID NO: 1 protein was measured by Western Blot analysis using a custom-made anti-SEQ ID NO: 1 antibody in A549 and HCT116 (A) and in HCT116 p53KO and BxPC-3 (B). (C) Immunostaining showing the upregulation of SEQ ID NO: 1 in A549 cells using a custom-made anti-SEQ ID NO: 1 antibody upon Doxorubicin treatment.
(§2) Doxorubicin, Actinomycin D and Nutlin-3a were purchased from Sigma-Aldrich. Doxorubicin was used at 1 μM, Actinomycin D was used at […] and Nutlin-3a was used at 10 μM in drug treatment experiments.
(§3) Total RNA was extracted with Trizol® and treated with TURBO™ DNase following provider's recommendations. 1 μg of RNA was retrotranscribed using iScript™ cDNA Synthesis Kit (BioRad). Gene expression was analysed by quantitative real time PCR using PowerUp SYBR Green Master Mix (Thermo Fisher Scientific) in the 7900HT Fast Real-Time PCR System (Applied Biosystems). Cycle threshold (Ct) values were normalized to GAPDH.
(§4) Cells pellets (4-5*10^6 cells) were homogenized in medium-salt lysis buffer (150 mM NaCl, 50 mM Tris pH 8, 1% NP40 and protein inhibitors cocktail). 50 μg of protein was loaded per lane in a 12% acrylamide gel and electrophoresed in Tris-Glycine SDS Running Buffer. The following antibodies were used: Anti-HA-Tag (Abcam, 1:5000), Anti-p53 (Santa Cruz, 1:1000), Anti-p21 (Thermo Fisher, 1:1000), Anti-GAPDH (Thermo Fisher, 1:5000).

[2] = system: SEQ ID NO:1 in HCT116 and A549 cells; assay: SEQ ID NO:1 expression (qPCR, Western Blot) after drug treatment, wild-type p53 cells; settings: cells with wild-type p53 (HCT116 and A549); Doxorubicin 1 μM, Actinomycin D 1 nM, Nutlin-3a 10 μM
Method: as §1, §2, §3, §4

[3] = system: SEQ ID NO 3 in HCT116 p53 KO; assay: SEQ ID NO: 3 mRNA levels by RT-qPCR after drug treatment in HCT116 p53 knock-out; settings: Nutlin3a 10 μM 48 h, Doxorubicin 1 μM 24 h
Method: FIG. 25. […] (A) HCT116 and HCT116 p53KO cells were treated with MDM2 inhibitor Nutlin3a (10 μM) during 48 h. SEQ ID NO: 3 transcriptional levels were tested by RT-qPCR. mRNA levels are normalized to untreated control (B) HCT116 and HCT116 p53KO cells were treated with genotoxic agent Doxorubicin (1 μM) during 24 h. SEQ ID NO: 3 mRNA levels were tested by RT-qPCR. mRNA levels are presented relative to GAPDH reference gene. Bars represent average of n=3 technical replicates±SD.
as §2, §3

SEQ ID NO 3 in HCT116 = assay: SEQ ID NO: 3 mRNA levels by RT-qPCR after drug treatment in HCT116; settings: Nutlin3a 10 μM 48 h, Doxorubicin 1 μM 24 h
Method: FIG. 25. […] (A) HCT116 and HCT116 p53KO cells were treated with MDM2 inhibitor Nutlin3a (10 μM) during 48 h. […] SEQ ID NO: 3 mRNA levels were tested by RT-qPCR. mRNA levels are presented relative to GAPDH reference gene. Bars represent average of n=3 technical replicates±SD.
as §2, §3

With Cc1c2oc3c(C)ccc(C(=O)N[C@@H]4C(=O)N[C@H](C(C)C)C(=O)N5CCC[C@H]5C(=O)N(C)CC(=O)N(C)[C@@H](C(C)C)C(=O)O[C@@H]4C)c3nc-2c(C(=O)N[C@@H]2C(=O)N[C@H](C(C)C)C(=O)N3CCC[C@H]3C(=O)N(C)CC(=O)N(C)[C@@H](C(C)C)C(=O)O[C@@H]2C)c(N)c1=O [Actinomycin D] (I: T[dV]P[Sar][NMeV] / II: T[dV]P[Sar][NMeV]; ester I:1-I:C, II:1-II:C; linker I:N-II:N via Actinocin(9to1)) the “expression of SEQ ID NO:1 (mRNA and protein levels)” value [1] was “do not shown the same response” and the “expression of SEQ ID NO:1 (mRNA and protein levels)” value [2] was “transcriptional and translational upregulation”.
In the case of COc1cccc2c1C(=O)c1c(O)c3c(c(O)c1C2=O)C[C@@](O)(C(=O)CO)C[C@@H]3O[C@H]1C[C@H](N)[C@H](O)[C@H](C)O1 [Doxorubicin], the “SEQ ID NO 3 transcriptional levels” value [3] is reported as “upregulation was impaired”, the “expression of SEQ ID NO:1 (mRNA and protein levels)” value [1] is reported as “do not shown the same response” and the “expression of SEQ ID NO:1 (mRNA and protein levels)” value [2] is reported as “transcriptional and translational upregulation”. The “SEQ ID NO 3 transcriptional levels” value (SEQ ID NO 3 in HCT116) was “upregulated”.
COc1ccc(C2=N[C@@H](c3ccc(Cl)cc3)[C@@H](c3ccc(Cl)cc3)N2C(=O)N2CCNC(=O)C2)c(OC(C)C)c1 [Nutlin-3a] was tested, and the “SEQ ID NO 3 transcriptional levels” value [3] was “upregulation was impaired”, the “expression of SEQ ID NO:1 (mRNA and protein levels)” value [1] was “do not shown the same response” and the “expression of SEQ ID NO:1 (mRNA and protein levels)” value [2] was “transcriptional and translational upregulation”. For the same compound, the “SEQ ID NO 3 transcriptional levels” value (SEQ ID NO 3 in HCT116) was “upregulated”.
